8 compounds from US12172976B2, “Delocalized lipophilic cation compounds and methods of use thereof” (The Board of Trustees of the Leland Stanford Junior …, priority 2019, dated 2024) can be followed below.

Structures are written as SMILES.

Data set [1] in a line: Photostability under continuous excitation. The class given is physicochemical. The note with it: 10 μM in water, continuously excited for 50 mins. The protocol: A 75 W Xenon arc lamp (Hamamatsu, San Jose, California, USA) with 420-470 nm bond pass filter (MF445-45, Thorlabs, Newton, New Jersey, USA) was used as the light source for the F16 derivatives, Rhodamine 6G, and Mitotracker® Green. Analogously, a 540-580 nm bond pass filter (MF559-34, Thorlabs, Newton, New Jersey, USA) was used to excite Mitotracker Red. All the dyes were dissolved in water at a 10 μM concentration in 700 μL micro quartz cuvettes (10 mm, Sigma-Aldrich, St. Louis, MO, USA). They were continuously excited for 50 mins. During this period, the fluorescence intensity was measured every 5 mins at 525 nm (F16s, Rhodamine 6G, Mitotracker Green) or 600 nm (Mitotracker Red). Relative fluorescence intensity change was monitored over time.

Data set [2] can be described thus: Fluorescence quantum yield against Rhodamine 6G. As to conditions: in ethanol, Rhodamine 6G as reference. Format: physicochemical. Here is the method:
The quantum yield of compounds (1) through (11) was measured in ethanol using Rhodamine 6G as a reference.
The fluorescence quantum yields of the compounds were determined using the formula (ϕ=ϕs(Fx/Fs) (As/Ax), where ϕ is quantum yield, F is the integrated area under the corrected emission spectrum, and A is the absorbance at the excitation wavelength; the subscripts x and s refer to F16s and the standard, respectively. Rhodamine 6G (OF 95%) in ethanol was used as the standard. All compounds and Rhodamine 6G were dissolved in ethanol in 5 different concentrations with the absorbance lower than 0.1 at 425 nm. The corresponding 5 different fluorescences of the compounds and Rhodamine 6G were excited at 425 nm and the emission spectra from 450 nm to 650 nm were obtained for the following integrated area measurement. All data was analyzed using Origin Pro 9.0 software (OriginLab, Northampton, Massachusetts, USA) to get the compounds' final quantum yield.

Data set [3] deals with bladder cancer T24 cells, non-small cell lung cancer (NSCLC) H838 cells, normal HIN-3T3 cells. As to the kind of experiment: In vitro cytotoxicity, anti-tumor activity and selectivity against normal cells. As to conditions: Homo sapiens, NCI-H838, 72 h, 3 days. The class given is cell-based. The protocol:
(§1) The cytotoxicity of compounds (1) through (11) was tested in vitro with bladder cancer T24 cells, non-small cell lung cancer (NSCLC) H838 cells, and normal HIN-3T3 cells (FIG. 4). All test cell lines were incubated in 96-well plates overnight at a density of 3000 cells/well. The culture medium was replaced with 200 μL of culture medium, into which the testing compound was dispersed at various concentrations (1.95-500 μM). After incubating for 3 days, the viable cell numbers were checked and directly counted under microscopy (10×). A minimum of 1 mm×1 mm area was counted from each of at least three widely separated regions of cell culture. The cell proliferation rate was calculated by the following formula: cell proliferation rate (%)=(average cell number of sample wells/average cell number of control wells)×100%. The intact culture medium was evaluated as a control.

A short description of data set [4]: UV absorbance of the compounds. Format: physicochemical. As to conditions: 31 μM in water. Here is the method: The absorbance and fluorescence of delocalized lipophilic cation compounds (1) through (11) were measured. UV absorbance of the compounds was recorded on an Agilent 8453 UV spectrophotometer at a concentration of 31 μM in water. Fluorescence was recorded on a Fluoromax-3 spectrafluorometer (Jobin Yvon) at a concentration of 7.8 μM in water.

The test system of data set [5] is carcinoma cell. As to the kind of experiment: Flow cytometry of carcinoma cell growth. The class given is cell-based.
For data set [6], the system named is NSCLC cell lines HCC827, H838, HCC4006, H1693, H2030, H2228, A549, H1437, H1944. Nature of the data set: Cytotoxicity in nine lung cancer cell lines. The class given is cell-based. As to conditions: all nine NSCLC cell lines.
Data set [7] relates to human lung adenocarcinoma HCC827 xenograft. As to the kind of experiment: Tumor growth and body weight in the HCC827 xenograft. Format: in vivo, nude mice. The protocol: (§2) In vivo studies on the effect of compound (3) on the tumor growth and body mass of a mouse model were conducted. Female athymic nude mice (nu/nu) from 4-6 weeks old were obtained from Charles River Laboratories (Boston, MA, USA) and kept under sterile conditions. 5×10^6 human lung adenocarcinoma HCC827 cells suspended in 150 μL of PBS were inoculated subcutaneously in the right shoulder of the nude mice. When the tumors reached 3˜5 mm in diameter, the tumor bearing mice were administered i.v. with compound (3) (dissolved in 150 μL PBS, with 2 μL DMSO) at 15 mg/kg on days 1, 3, 5, 7, 9, 11, 13, 15, 17, 19, 21. Correspondingly, untreated tumor-bearing mice serving as controls were administered i.v. with 150 μL 1×PBS pH 7.4 (with 2 μL DMSO) on the same days as the treated mice. Ten mice were used for each group. Length and width of the elliptical tumors were measured by Vernier caliper after every intravenous injection. Modified ellipsoid formula ½ (Length×Width^2) was used to calculate the tumor size. The tumor growth was calculated with the ratio of final volume (FV) minus initial volume (IV) to initial volume (IV).

For data set [8], the system named is H838 cells. As to the kind of experiment: Dependence of mitochondrial accumulation on mitochondrial membrane potential. Format: cell-based. The protocol: To examine whether the mitochondrial membrane potential (ΔΨm) causes the accumulation of delocalized lipophilic cation compounds in mitochondria, H838 cells were preincubated with medium containing high concentrations of K^+ ions (i.e. 137 mM), to depolarize the mitochondrial membrane, or low concentrations of K^+ ions (i.e. 3 mM). Next, 3 μM of compound (3) was added and the cells were incubated for 30 minutes.

In data set [9] the test system is H2228 cell line. Nature of the data set: In vitro cytotoxicity, H2228. Format: cell-based.
Data set [10] deals with non-small cell lung cancer (NSCLC) H838 cells. Nature of the data set: In vitro cytotoxicity, H838. The class given is cell-based. The note with it: Homo sapiens, NCI-H838, 72 h, 3 days. Here is the method: as §1
Data set [11] deals with mitochondria. Nature of the data set: Mitochondrial targeting, fluorescence microscopy of stained cells. The class given is cell-based. As to conditions: NIH-353, H838, and T24 cell lines. The protocol: The mitochondrial targeting properties of compounds (1) through (11) were tested. 3 μM compounds were added to cells grown in a MatTek glass-bottom culture dishes (Ashland, Massachusetts) for 1 h and washed with PBS (phosphate-buffered saline) three times. After replacement of the medium, cells were imaged using a fluorescent microscope (Zeiss) with a 63× oil or 20× objective lens (excited in the GFP channel).
Mitotracker@ Red (Molecular Probes) and Hoechst (Thermo Scientific) were added to the medium to stain the mitochondria and nuclei, following the manufacturer's procedures. Cells were photographed using a 63× oil or 20× objective lens.

The test system of data set [12] is bladder cancer T24 cells. As to the kind of experiment: In vitro cytotoxicity, T24. As to conditions: Homo sapiens, T-24, 72 h, 3 days. The class given is cell-based. The protocol: as §1
The subject of data set [13] is subcutaneous HCC827 tumor. As to the kind of experiment: In vivo fluorescent imaging of mice bearing HCC827 tumors. More on the design: species or system nude mice. As to conditions: 15 mg/kg intravenous. The protocol: as §2, with “(IV). In vivo fluorescent imaging was taken 40 minutes and 2 hours after the injection of compound (3) 15 mg/kg. IVIS spectrum instrument was used. Excitation wavelength was set at 450 nm. Collection wavelength was set at 550 nm, using a 3s acquisition time. […]” for “(IV).”

With `Cn1cc(/C=C/c2cc[n+](C)cc2)c2cc(F)ccc21` [(1)], the photostability entry in [1] was “bleached relatively easily”. Besides, in data set [2], the quantum yield result was “around 12%”.

In [3], `C[n+]1ccc(/C=C/c2c[nH]c3c2ccc2ccccc23)cc1` [(2)] displayed an IC50 of 360 to 6200 nM. Besides, in [2], the quantum yield entry is given as “around 12%”.

The compound `C[n+]1ccc(/C=C/c2c[nH]c3ccc(Br)cc23)cc1` [(5)] yielded an IC50 in [3] of 360 to 6200 nM. Also, the “absorption peak / absorption maxima” value in data set [4] is “about 450 nm”.

As for `C[n+]1ccc(/C=C/c2c[nH]c3ccc(F)cc23)cc1` [(7)], the quantum yield result in data set [2] is reported as “around 20%”.

On to `C[n+]1ccc(/C=C/c2c(Cl)[nH]c3ccccc23)cc1` [(8)], for which the photostability result in data set [1] is “bleached relatively easily”.

As to `Cc1ccc2[nH]c(C)c(/C=C/c3cc[n+](C)cc3)c2c1` [(9)], the photostability entry in [1] is reported as “bleached relatively easily”. Also, in data set [2], the quantum yield result is listed as “around 20%”. The “absorption peak / absorption maxima” value in data set [4] was “about 450 nm”.

As for `Cc1cc(Br)cc2c(/C=C/c3cc[n+](C)cc3)c[nH]c12` [Compound (3)], the IC50 in [3] is 360 to 6200 nM; in [9] (Homo sapiens, NCI-H2228, H2228 cell line), 48.9 nM; in [10], 360 nM; in data set [12] it was 820 nM. Also, the “carcinoma cell growth by flow cytometry” value in [5] was “inhibited carcinoma cell growth in a time-dependent manner”. In [2], the quantum yield result was “around 20%”. For the same compound, the “ATCA (antitumor activity) in NSCLC cell lines” value in data set [6] was “impressively high ATCA”. Moreover, the “tumor volume compared to PBS treated group” value in data set [7] (15 mg/kg i.v. on days 1 to 21 every other day, 21 days PI, p=0.0426) is reported as “decreased dramatically”. In [7] (15 mg/kg i.v., p=0.477), the “bodyweight between control and treated group” value is given as “no significant difference”. Moreover, the “tumor pathologic section H&E staining” value in [7] (HCC827 tumor of treated mice) is “caused tumor inflammatory cell infiltration, fibrous tissue proliferation, and cell apoptosis”. In addition, the “accumulation in the mitochondria, low K+” value in [8] (3 μM, 30 minutes, preincubation with 3 mM K+) is listed as “more accumulation”. Further, the “accumulation in the mitochondria, high K+” value in [8] (3 μM, 30 minutes, preincubation with 137 mM K+) was “less accumulation”. Also, in [8] (FCCP added to the cells), the “mitochondrial staining after addition of FCCP” value was “immediately decayed and diffused into the cytoplasm”. Further, the “anti-cancer cell to anti-normal cell ratio” value in [9] (H2228 against 3T3) is “around 225”. Besides, the “colocalization with MitoTrack” value in data set [11] is reported as “colocalization”. In data set [13] (2 h post injection), the “tumor to background ratio” value is reported as approximately 2. Also, the organ accumulation result in [13] (compared with liver, spleen, heart, lung, and brain) is “Tumor, kidney, bone, stomach, bowel, pancreas and skin accumulated more”.

In the case of `C[n+]1ccc(/C=C/c2c[nH]c3ccc(C#N)cc23)cc1` [Compound (4)], the IC50 in data set [3] was 360 to 6200 nM. This compound also gave a quantum yield in data set [2] of 49.1%.
